Experimental data taken from paper PMC10176470, “Engaging a Non-catalytic Cysteine Residue Drives Potent and Selective Inhibition of Caspase-6” (Journal of the American Chemical Society, 2023).

Tests used:
Format in all cases: cell-based
[1] = molecular target: proteins of HEK293T cells transiently overexpressing caspase-6 (Homo sapiens, UniProt P13797); settings: exp_ref Probe; protein PLS3 (P13797); analysis C6
[2] = molecular target: proteins of HEK293T cells transiently overexpressing caspase-6 (Homo sapiens, UniProt Q9Y262); settings: exp_ref Probe; protein EIF3L (Q9Y262); analysis C6
[3] = molecular target: proteins of HEK293T cells transiently overexpressing caspase-6 (Homo sapiens, UniProt P42704); settings: exp_ref Probe; protein LRPPRC (P42704); analysis C6
[4] = molecular target: proteins of HEK293T cells transiently overexpressing caspase-6 (Homo sapiens, UniProt P23246); settings: exp_ref Probe; protein SFPQ (P23246); analysis C6
proteins of HEK293T cells transiently overexpressing caspase-6 (Homo sapiens, UniProt P23246), sequence (P23246 whole entry): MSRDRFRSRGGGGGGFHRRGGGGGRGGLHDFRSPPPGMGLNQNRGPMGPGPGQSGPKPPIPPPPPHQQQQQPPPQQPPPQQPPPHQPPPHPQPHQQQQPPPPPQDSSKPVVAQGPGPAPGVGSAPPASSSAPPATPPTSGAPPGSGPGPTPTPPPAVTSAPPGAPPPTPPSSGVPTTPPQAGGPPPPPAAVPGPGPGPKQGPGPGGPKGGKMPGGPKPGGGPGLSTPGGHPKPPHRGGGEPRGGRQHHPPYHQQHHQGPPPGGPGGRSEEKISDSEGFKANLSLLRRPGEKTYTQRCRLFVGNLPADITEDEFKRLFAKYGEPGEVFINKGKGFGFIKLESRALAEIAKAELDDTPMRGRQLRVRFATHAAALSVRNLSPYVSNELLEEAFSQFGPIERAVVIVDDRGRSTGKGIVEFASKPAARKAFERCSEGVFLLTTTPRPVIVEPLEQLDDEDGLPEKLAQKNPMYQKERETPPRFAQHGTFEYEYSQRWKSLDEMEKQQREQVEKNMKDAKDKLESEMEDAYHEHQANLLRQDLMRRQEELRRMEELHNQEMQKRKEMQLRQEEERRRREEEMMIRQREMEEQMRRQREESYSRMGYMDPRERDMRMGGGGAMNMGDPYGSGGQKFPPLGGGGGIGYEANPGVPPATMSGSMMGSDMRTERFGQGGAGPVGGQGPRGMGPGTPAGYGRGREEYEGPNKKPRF

[5] = molecular target: proteins of HEK293T cells transiently overexpressing caspase-6 (Homo sapiens, UniProt Q99460); settings: protein PSMD1 (Q99460); exp_ref Probe; analysis C6
[6] = molecular target: proteins of HEK293T cells transiently overexpressing caspase-6 (Homo sapiens, UniProt P10155); settings: Probe; protein TROVE2 P10155
[7] = molecular target: proteins of HEK293T cells transiently overexpressing caspase-6 (Homo sapiens, UniProt P12004); settings: protein PCNA (P12004)
proteins of HEK293T cells transiently overexpressing caspase-6 (Homo sapiens, UniProt P12004), sequence (P12004 whole entry): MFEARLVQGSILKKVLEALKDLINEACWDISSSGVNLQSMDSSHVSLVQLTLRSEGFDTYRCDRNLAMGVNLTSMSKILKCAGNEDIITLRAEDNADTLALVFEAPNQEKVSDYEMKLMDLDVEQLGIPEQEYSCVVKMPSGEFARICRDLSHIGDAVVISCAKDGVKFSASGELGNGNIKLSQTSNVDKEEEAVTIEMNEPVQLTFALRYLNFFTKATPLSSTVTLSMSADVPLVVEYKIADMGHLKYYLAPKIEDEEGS

[8] = molecular target: proteins of HEK293T cells transiently overexpressing caspase-6 (Homo sapiens, UniProt P51991); settings: exp_ref Probe; protein HNRNPA3 (P51991); analysis C6
proteins of HEK293T cells transiently overexpressing caspase-6 (Homo sapiens, UniProt P51991), sequence (P51991 whole entry): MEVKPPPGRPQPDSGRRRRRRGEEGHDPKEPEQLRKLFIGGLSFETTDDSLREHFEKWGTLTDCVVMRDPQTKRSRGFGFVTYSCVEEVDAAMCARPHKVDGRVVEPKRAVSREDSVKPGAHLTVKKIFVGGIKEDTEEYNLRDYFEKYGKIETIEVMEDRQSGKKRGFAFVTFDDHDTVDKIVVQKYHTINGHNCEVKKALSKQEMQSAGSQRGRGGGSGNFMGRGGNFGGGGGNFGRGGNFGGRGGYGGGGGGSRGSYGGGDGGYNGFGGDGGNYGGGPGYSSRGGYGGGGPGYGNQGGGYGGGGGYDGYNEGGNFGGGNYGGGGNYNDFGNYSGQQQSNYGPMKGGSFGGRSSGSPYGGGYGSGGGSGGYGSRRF

[9] = molecular target: proteins of HEK293T cells transiently overexpressing caspase-6 (Homo sapiens, UniProt Q15233); settings: exp_ref Probe; protein NONO (Q15233); analysis C6
proteins of HEK293T cells transiently overexpressing caspase-6 (Homo sapiens, UniProt Q15233), sequence (Q15233 whole entry): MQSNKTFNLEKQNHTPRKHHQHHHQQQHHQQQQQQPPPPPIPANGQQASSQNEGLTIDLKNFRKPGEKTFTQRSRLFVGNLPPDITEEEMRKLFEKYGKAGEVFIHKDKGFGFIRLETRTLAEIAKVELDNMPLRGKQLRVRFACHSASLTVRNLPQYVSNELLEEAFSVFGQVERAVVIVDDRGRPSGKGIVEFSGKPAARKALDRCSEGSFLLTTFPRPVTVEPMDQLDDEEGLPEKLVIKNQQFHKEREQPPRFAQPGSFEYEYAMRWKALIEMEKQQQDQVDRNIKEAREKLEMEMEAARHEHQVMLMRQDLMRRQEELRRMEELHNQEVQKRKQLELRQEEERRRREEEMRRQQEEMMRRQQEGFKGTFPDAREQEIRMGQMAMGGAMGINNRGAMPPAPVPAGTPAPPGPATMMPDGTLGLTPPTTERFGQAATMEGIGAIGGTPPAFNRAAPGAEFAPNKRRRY

[10] = molecular target: proteins of HEK293T cells transiently overexpressing caspase-6 (Homo sapiens, UniProt P35232); settings: Probe; protein PHB P35232
proteins of HEK293T cells transiently overexpressing caspase-6 (Homo sapiens, UniProt P35232), sequence (P35232 whole entry): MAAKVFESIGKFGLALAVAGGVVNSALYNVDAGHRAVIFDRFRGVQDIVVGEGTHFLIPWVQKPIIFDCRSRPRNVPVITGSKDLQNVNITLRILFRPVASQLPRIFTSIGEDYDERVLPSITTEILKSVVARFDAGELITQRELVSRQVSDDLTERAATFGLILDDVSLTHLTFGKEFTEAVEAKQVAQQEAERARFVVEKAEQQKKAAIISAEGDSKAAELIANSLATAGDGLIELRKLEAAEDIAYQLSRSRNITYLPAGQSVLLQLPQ

[11] = molecular target: proteins of HEK293T cells transiently overexpressing caspase-6 (Homo sapiens, UniProt Q9Y224); settings: Probe; protein C14orf166 Q9Y224
proteins of HEK293T cells transiently overexpressing caspase-6 (Homo sapiens, UniProt Q9Y224), sequence (Q9Y224 whole entry): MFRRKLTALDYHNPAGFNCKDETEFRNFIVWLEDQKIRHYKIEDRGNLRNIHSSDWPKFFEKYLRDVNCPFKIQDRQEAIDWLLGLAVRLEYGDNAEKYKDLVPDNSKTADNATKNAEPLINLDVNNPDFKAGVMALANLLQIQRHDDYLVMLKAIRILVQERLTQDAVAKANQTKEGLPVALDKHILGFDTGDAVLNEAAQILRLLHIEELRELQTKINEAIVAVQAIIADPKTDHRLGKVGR

[12] = molecular target: T1, proteins of HEK293T cells transiently overexpressing caspase-6 (Homo sapiens, UniProt Q00325); settings: protein SLC25A3 (Q00325)
T1 sequence (Q00325 50-362): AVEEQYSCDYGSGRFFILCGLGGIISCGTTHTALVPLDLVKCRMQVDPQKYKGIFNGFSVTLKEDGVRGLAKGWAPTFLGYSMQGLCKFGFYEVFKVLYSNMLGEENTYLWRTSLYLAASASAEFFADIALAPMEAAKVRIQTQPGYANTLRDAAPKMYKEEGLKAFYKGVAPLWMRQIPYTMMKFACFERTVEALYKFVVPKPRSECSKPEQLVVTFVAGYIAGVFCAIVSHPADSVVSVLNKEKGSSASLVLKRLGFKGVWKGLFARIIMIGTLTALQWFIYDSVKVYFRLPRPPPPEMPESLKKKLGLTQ

[13] = molecular target: proteins of HEK293T cells transiently overexpressing caspase-6 (Homo sapiens, UniProt P84090); settings: Probe; protein ERH P84090
[14] = molecular target: proteins of HEK293T cells transiently overexpressing caspase-6 (Homo sapiens, UniProt P27694); settings: Probe; protein RPA1 P27694
[15] = molecular target: proteins of HEK293T cells transiently overexpressing caspase-6 (Homo sapiens, UniProt P49736); settings: Probe; protein MCM2 P49736
[16] = molecular target: proteins of HEK293T cells transiently overexpressing caspase-6 (Homo sapiens, UniProt Q07020); settings: Probe; protein RPL18 Q07020
[17] = molecular target: proteins of HEK293T cells transiently overexpressing caspase-6 (Homo sapiens, UniProt P34897); settings: Probe; protein SHMT2 P34897
[18] = molecular target: proteins of HEK293T cells transiently overexpressing caspase-6 (Homo sapiens, UniProt Q13428); settings: exp_ref Probe; protein TCOF1 (Q13428); analysis C6
[19] = molecular target: proteins of HEK293T cells transiently overexpressing caspase-6 (Homo sapiens, UniProt P63244); settings: exp_ref Probe; protein GNB2L1 (P63244); analysis C6
[20] = molecular target: proteins of HEK293T cells transiently overexpressing caspase-6 (Homo sapiens, UniProt P0DMV8); settings: protein HSPA1A (P0DMV8)
proteins of HEK293T cells transiently overexpressing caspase-6 (Homo sapiens, UniProt P0DMV8), sequence (P0DMV8 whole entry): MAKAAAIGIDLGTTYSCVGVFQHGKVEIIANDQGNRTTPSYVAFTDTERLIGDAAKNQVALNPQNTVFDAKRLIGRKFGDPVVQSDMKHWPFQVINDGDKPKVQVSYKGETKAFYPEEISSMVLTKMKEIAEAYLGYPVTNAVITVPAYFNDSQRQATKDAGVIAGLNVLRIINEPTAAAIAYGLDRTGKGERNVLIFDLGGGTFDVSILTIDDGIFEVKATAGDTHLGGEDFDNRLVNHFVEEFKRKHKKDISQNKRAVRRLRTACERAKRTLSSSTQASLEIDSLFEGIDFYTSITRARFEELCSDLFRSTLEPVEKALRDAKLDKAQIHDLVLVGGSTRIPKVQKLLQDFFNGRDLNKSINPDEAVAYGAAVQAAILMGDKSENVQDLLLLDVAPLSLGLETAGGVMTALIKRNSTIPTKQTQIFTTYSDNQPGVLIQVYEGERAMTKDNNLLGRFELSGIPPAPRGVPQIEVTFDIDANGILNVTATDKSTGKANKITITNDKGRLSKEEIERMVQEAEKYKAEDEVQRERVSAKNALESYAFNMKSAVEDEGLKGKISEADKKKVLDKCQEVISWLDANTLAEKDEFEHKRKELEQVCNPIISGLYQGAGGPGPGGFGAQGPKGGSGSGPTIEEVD

[21] = molecular target: proteins of HEK293T cells transiently overexpressing caspase-6 (Homo sapiens, UniProt P39687); settings: exp_ref Probe; protein ANP32A (P39687); analysis C6
proteins of HEK293T cells transiently overexpressing caspase-6 (Homo sapiens, UniProt P39687), sequence (P39687 whole entry): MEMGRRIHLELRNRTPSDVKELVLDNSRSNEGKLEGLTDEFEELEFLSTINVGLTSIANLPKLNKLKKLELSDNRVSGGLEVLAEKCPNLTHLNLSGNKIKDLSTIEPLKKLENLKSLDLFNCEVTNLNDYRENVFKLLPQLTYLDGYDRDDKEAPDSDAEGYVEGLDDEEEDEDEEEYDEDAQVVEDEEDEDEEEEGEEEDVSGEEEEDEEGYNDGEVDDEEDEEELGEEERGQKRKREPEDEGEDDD

[22] = molecular target: proteins of HEK293T cells transiently overexpressing caspase-6 (Homo sapiens, UniProt O15355); settings: exp_ref Probe; protein PPM1G (O15355); analysis C6
proteins of HEK293T cells transiently overexpressing caspase-6 (Homo sapiens, UniProt O15355), sequence (O15355 whole entry): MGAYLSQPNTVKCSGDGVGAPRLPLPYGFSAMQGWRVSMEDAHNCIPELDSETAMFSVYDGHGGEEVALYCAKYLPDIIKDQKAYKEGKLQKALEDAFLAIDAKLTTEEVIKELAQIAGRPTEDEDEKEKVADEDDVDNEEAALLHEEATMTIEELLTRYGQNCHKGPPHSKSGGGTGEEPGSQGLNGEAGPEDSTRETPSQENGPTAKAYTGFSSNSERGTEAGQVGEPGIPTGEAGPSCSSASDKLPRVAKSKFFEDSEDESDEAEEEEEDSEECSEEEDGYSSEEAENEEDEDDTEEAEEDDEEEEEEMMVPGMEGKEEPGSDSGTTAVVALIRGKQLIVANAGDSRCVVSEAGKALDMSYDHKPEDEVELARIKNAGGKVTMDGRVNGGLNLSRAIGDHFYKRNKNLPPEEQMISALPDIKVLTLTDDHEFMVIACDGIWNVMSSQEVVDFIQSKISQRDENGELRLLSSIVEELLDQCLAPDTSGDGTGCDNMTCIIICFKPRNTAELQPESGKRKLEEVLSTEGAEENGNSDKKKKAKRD

[23] = molecular target: proteins of HEK293T cells transiently overexpressing caspase-6 (Homo sapiens, UniProt P06733); settings: protein ENO1 (P06733)
proteins of HEK293T cells transiently overexpressing caspase-6 (Homo sapiens, UniProt P06733), sequence (P06733 whole entry): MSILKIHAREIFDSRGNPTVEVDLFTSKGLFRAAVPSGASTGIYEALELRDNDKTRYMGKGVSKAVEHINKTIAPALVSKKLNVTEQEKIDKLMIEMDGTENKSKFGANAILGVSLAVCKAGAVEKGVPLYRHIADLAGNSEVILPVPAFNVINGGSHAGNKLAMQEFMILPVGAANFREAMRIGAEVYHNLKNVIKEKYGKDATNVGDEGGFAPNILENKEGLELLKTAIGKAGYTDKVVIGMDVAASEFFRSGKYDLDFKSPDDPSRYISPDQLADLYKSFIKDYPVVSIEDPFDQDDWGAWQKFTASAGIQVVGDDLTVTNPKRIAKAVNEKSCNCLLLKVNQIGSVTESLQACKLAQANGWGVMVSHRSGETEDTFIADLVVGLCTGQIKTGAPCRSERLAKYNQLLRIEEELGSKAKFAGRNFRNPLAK

[24] = molecular target: proteins of HEK293T cells transiently overexpressing caspase-6 (Homo sapiens, UniProt P41250); settings: exp_ref Probe; protein GARS (P41250); analysis C6
proteins of HEK293T cells transiently overexpressing caspase-6 (Homo sapiens, UniProt P41250), sequence (P41250 37-739): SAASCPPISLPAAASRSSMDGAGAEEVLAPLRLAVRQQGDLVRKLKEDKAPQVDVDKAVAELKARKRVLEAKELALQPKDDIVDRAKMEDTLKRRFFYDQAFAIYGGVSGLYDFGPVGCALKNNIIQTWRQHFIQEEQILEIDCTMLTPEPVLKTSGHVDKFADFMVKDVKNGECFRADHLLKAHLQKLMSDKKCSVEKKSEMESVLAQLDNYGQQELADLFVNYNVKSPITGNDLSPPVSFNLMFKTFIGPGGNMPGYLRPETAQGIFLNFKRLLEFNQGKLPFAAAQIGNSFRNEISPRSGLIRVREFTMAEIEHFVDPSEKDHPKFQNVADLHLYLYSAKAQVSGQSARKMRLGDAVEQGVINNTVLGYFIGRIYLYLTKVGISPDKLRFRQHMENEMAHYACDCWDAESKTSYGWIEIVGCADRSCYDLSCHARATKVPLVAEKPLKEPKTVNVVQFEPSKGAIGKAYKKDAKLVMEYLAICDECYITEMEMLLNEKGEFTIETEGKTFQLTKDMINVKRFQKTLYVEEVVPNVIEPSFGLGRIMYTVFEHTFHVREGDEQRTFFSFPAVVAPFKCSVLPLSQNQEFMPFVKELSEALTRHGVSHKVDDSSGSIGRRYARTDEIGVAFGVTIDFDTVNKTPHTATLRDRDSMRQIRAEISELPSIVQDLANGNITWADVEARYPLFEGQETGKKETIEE

In the case of `C#CCOc1ccc([C@@H]2C[C@@H](C(=O)Nc3ccc(OC(F)(F)F)cc3)CN(S(=O)(=O)C=C)C2)cc1` (relative stereo) [13-t], the enrich.exp.med [1] is reported as 0.7997, the enrich.exp.med [2] is reported as 0.2171 and the enrich.exp.med [3] is reported as 0.2022. It also gave an enrich.exp.med [4] of -0.1094, an enrich.exp.med [5] of 1.73 and an enrich.exp.med [6] of -1.006. For the same molecule, the enrich.exp.med ([7]; exp_ref Probe, analysis C6) was 0.8638, the enrich.exp.med.lin [7] was 1.82 and the enrich.exp.med.log2 [7] was 0.8638. For the same molecule, the enrich.exp.med [8] was 0.2112, the enrich.exp.med [9] was 0.7906 and the enrich.exp.med [10] was -1.532. The enrich.exp.med [11] was -1.579, the enrich.exp.med ([12]; exp_ref Probe, analysis C6) was 0.6055 and the enrich.exp.med.lin [12] was 1.522. It also gave an enrich.exp.med.log2 [12] of 0.6055, an enrich.exp.med [13] of -0.8193 and an enrich.exp.med [14] of -1.323. It also gave an enrich.exp.med [15] of -1.091, an enrich.exp.med [16] of -0.6313 and an enrich.exp.med [17] of -2.762. For the same molecule, the enrich.exp.med [18] was 0.9444, the enrich.exp.med [19] was 0.2005 and the enrich.exp.med ([20]; exp_ref Probe, analysis C6) was 0.4797. The enrich.exp.med.lin [20] was 1.394, the enrich.exp.med.log2 [20] was 0.4797 and the enrich.exp.med [21] was 0.2226. For the same molecule, the enrich.exp.med [22] was -0.08092, the enrich.exp.med ([23]; exp_ref Probe, analysis C6) was 0.5104 and the enrich.exp.med.lin [23] was 1.424. It also gave an enrich.exp.med.log2 [23] of 0.5104 and an enrich.exp.med [24] of 1.008.
